Experimental findings from US20200031778A1, “NOVEL 5-SUBSTITUTED IMIDAZOLYLMETHYL DERIVATIVES” (Bayer CropScience Aktiengesellschaft, priority 2016, published 2020) are described below.

The subject of series [1] is Puccinia recondita. Put plainly: Example IX-A: in vivo preventive test on Puccinia recondita (brown rust on wheat). Particulars: 264 h, compounds of formula IX, 500 ppm of active ingredient, wheat plants, preventive spray, evaluated 11 days after inoculation, read-out: efficacy. The procedure: Example IX-A: In Vivo Preventive Test on Puccinia Recondita (Brown Rust on Wheat)
(§1) The active ingredients are made soluble and homogenized in a mixture of Dimethyl sulfoxide/Acetone/Tween® 80 and then diluted in water to the desired concentration.
The young plants of wheat are treated by spraying the active ingredient prepared as described above. Control plants are treated only with an aqueous solution of Acetone/Dimethyl sulfoxide/Tween® 80.
After 24 hours, the plants are contaminated by spraying the leaves with an aqueous suspension of Puccinia recondita spores. The contaminated wheat plants are incubated for 24 hours at 20° C. and at 100% relative humidity and then for 10 days at 20° C. and at 70-80% relative humidity.
(§2) The test is evaluated 11 days after the inoculation. 0% means an efficacy which corresponds to that of the control plants while an efficacy of 100% means that no disease is observed.

The nature of series [2]: Log P by HPLC on reversed phase columns (EEC directive 79/831 Annex V.A8; methods [a], [b], [c]). It counts as physicochemical. Particulars: reversed phase HPLC column; method [a]: LC-UV, acidic range, 0.1% formic acid in water and acetonitrile as eluent (linear gradient from 10% to 95% acetonitrile). In short, it runs like this:
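Reversed-phase HPLC with LC-UV detection, 10→95% acetonitrile linear gradient; aqueous eluent 0.1% formic acid [a], 0.001 M ammonium acetate, neutral [b], or 0.1% phosphoric acid [c]. Calibrated against C3–C16 alkan-2-ones of known Log P by retention-time linear interpolation; multiple values within a method separated by "+".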

Series [3] has as its system Septoria tritici. Put plainly: Example IX-B: in vivo preventive test on Septoria tritici (leaf spot on wheat). The conditions noted are these: Zymoseptoria tritici, 576 h; compounds of formula IX; 500 ppm of active ingredient; wheat plants, preventive spray; evaluated 24 days after inoculation; read-out: efficacy. In short, it runs like this: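 Wheat seedlings sprayed preventively with compound dissolved in DMSO/acetone/Tween 80 and diluted in water; solvent-only controls. Spore suspension of S. tritici sprayed 24 h later; 72 h at 18 °C/100% RH, then 21 days at 20 °C/90% RH. Efficacy scored 24 days post-inoculation, 0% = control, 100% = no disease.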

Series [4] relates to Sphaerotheca fuliginea. Put plainly: Example IX-C: in vivo preventive test on Sphaerotheca fuliginea (powdery mildew on cucurbits). The conditions noted are these: Podosphaera fuliginea, 360 h; compounds of formula IX; 500 ppm of active ingredient; gherkin plants, preventive spray; evaluated 15 days after inoculation; read-out: efficacy. In short, it runs like this:
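Young gherkin plants sprayed with compound in DMSO/acetone/Tween 80 diluted in water, then inoculated 24 h later with Sphaerotheca fuliginea spores. Kept 72 h at 18 °C/100% RH, then 12 days at 20 °C/70-80% RH; efficacy scored 15 days post-inoculation, 0% = control, 100% = no disease.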

Series [5] relates to Uromyces appendiculatus. Put plainly: Example IX-D: in vivo preventive test on Uromyces appendiculatus (bean rust). Particulars: 264 h, compounds of formula IX, 500 ppm of active ingredient, bean plants, preventive spray, evaluated 11 days after inoculation, read-out: efficacy. The procedure: Example IX-D: In Vivo Preventive Test on Uromyces Appendiculatus (Bean Rust)
as §1
The young plants of bean are treated by spraying the active ingredient prepared as described above. Control plants are treated only with an aqueous solution of Acetone/Dimethyl sulfoxide/Tween® 80.
After 24 hours, the plants are contaminated by spraying the leaves with an aqueous suspension of Uromyces appendiculatus spores. The contaminated bean plants are incubated for 24 hours at 20° C. and at 100% relative humidity and then for 10 days at 20° C. and at 70-80% relative humidity.
as §2
control plants while an efficacy of 100% means that no disease was observed.

The term chromatographic logP denotes lipophilicity estimated from chromatographic retention. Read a high chromatographic logP as a more lipophilic compound. Take `O=C(Cn1cncc1Cl)c1ccc(Oc2ccc(Br)cc2)cc1Cl` [IX-15, 1-[4-(4-bromophenoxy)-2-chloro-phenyl]-2-(5-chloroimidazol-1-yl)ethanone]: the pest or weed control at 500 ppm in series [1], in series [3], in series [4] and in series [5] was 90 to 100% each time. The same compound registered a chromatographic logP in series [2] of 3.13.

Regarding `N#Cc1cncn1CC(=O)c1ccc(Oc2ccc(Cl)cc2)cc1F` [IX-64], the pest or weed control at 500 ppm in series [1], in series [3], in series [4] and in series [5] was 90 to 100% each time. This compound yielded a chromatographic logP in series [2] of 3.27.

For the compound `O=C(Cn1cncc1F)c1ccc(Oc2ccc(C(F)F)cc2)nc1C(F)(F)F` [IX-134], the pest or weed control at 500 ppm lay within 80 to 89% in series [1], 90 to 100% in series [3], 90 to 100% in series [4] and 90 to 100% in series [5]. Further, the chromatographic logP in series [2] worked out at 2.48.

For `O=C(Cn1cncc1Cl)c1ccc(Oc2ccc(Br)cc2)cc1Br` [IX-37], the pest or weed control at 500 ppm was 80 to 89% in series [1], 90 to 100% in series [3], 90 to 100% in series [4] and 90 to 100% in series [5]. In series [2], this compound registered a chromatographic logP of 3.22.

Regarding `O=C(Cn1cncc1Cl)c1ccc(Oc2ccc(F)cc2)cc1Cl` [IX-08], the pest or weed control at 500 ppm in series [1] lay within 80 to 89%; in series [3], 90 to 100%; in series [4] it was 90 to 100%; in series [5], 90 to 100%. Besides, in series [2], the chromatographic logP was 2.73.

Consider `O=C(Cn1cncc1Cl)c1ccc(Oc2ccc(Br)cc2)cc1C(F)(F)F` [IX-29], for which the pest or weed control at 500 ppm in series [1] lay within 90 to 100%; in series [3] it was 90 to 100%; in series [4], 80 to 89%; in series [5] it was 80 to 89%. For the same compound, the chromatographic logP in series [2] turned out to be 3.37.

As to `N#Cc1cncn1CC(=O)c1ccc(Oc2ccc(Br)cc2)cc1Br` [IX-67], the pest or weed control at 500 ppm in series [1], in series [3], in series [4] and in series [5] was 90 to 100% throughout. Also, in series [2], the chromatographic logP was determined as 3.62.

On to `N#Cc1cncn1CC(=O)c1ccc(Oc2ccc(Cl)cc2)cc1Br` [IX-61], for which the pest or weed control at 500 ppm is 90 to 100% in series [1], 80 to 89% in series [3], 90 to 100% in series [4] and 90 to 100% in series [5]. In series [2], the chromatographic logP came out at 3.53.

As to `Cc1ccc(Oc2ccc(C(=O)Cn3cncc3Cl)c(Cl)c2)cc1` [IX-07], the pest or weed control at 500 ppm in series [1], in series [3], in series [4] and in series [5] was 90 to 100% each time. Besides, the chromatographic logP in series [2] stood at 3.09.

For the compound `O=C(Cn1cncc1Cl)c1ccc(Oc2ccc(Cl)cc2)cc1C(F)(F)F` [IX-30], the pest or weed control at 500 ppm in series [1] was in the range of 70 to 79%; in series [3], 90 to 100%; in series [4] it was 80 to 89%; in series [5], 90 to 100%. The compound further came in with a chromatographic logP in series [2] of 3.37.

In the case of `O=C(Cn1cncc1C(F)(F)F)c1ccc(Oc2ccc(Cl)cc2)cc1F` [IX-80], the pest or weed control at 500 ppm in series [1], in series [3], in series [4] and in series [5] was 90 to 100% in each case. This compound also gave a chromatographic logP in series [2] of 3.85.

In the case of `O=C(Cn1cncc1Cl)c1ccc(Oc2ccc(C(F)(F)F)cc2)cc1Cl` [IX-14], the pest or weed control at 500 ppm in series [1], in series [3], in series [4] and in series [5] was 90 to 100% each time. In series [2], this compound displayed a chromatographic logP of 3.33.

On to `N#Cc1cncn1CC(=O)c1cnc(Oc2ccc(OC(F)(F)F)cc2)cc1C(F)(F)F` [IX-112], for which the pest or weed control at 500 ppm in series [1] was 80 to 89%; in series [3] it was 80 to 89%; in series [4], 90 to 100%; in series [5], 90 to 100%. In addition, in series [2], the chromatographic logP came to 3.64.

As to `O=C(Cn1cncc1Br)c1ccc(Oc2ccc(OC(F)(F)F)cc2)cc1Br` [IX-06], the pest or weed control at 500 ppm in series [1] lay within 80 to 89%; in series [3], 90 to 100%; in series [4], 90 to 100%; in series [5], 70 to 79%. In series [2], this compound yielded a chromatographic logP of 3.53.

For `N#Cc1cncn1CC(=O)c1ccc(Oc2ccc(Cl)cc2)cc1C(F)F` [IX-75], the pest or weed control at 500 ppm in series [1], in series [3], in series [4] and in series [5] was 90 to 100% in each case. In series [2], the chromatographic logP was 3.39.

As for `N#Cc1cncn1CC(=O)c1ccc(Oc2ccc(I)cc2)cc1Cl` [IX-68], the pest or weed control at 500 ppm in series [1], in series [3], in series [4] and in series [5] was 90 to 100% throughout. Further, the chromatographic logP in series [2] came out at 3.71.

For `O=C(Cn1cncc1F)c1cnc(Oc2ccc(C(F)(F)F)cc2)cc1Cl` [IX-110], the pest or weed control at 500 ppm in series [1], in series [3], in series [4] and in series [5] was 90 to 100% each time. Further, the chromatographic logP in series [2] turned out to be 2.56.

As for `O=C(Cn1cncc1Cl)c1cnc(Oc2ccc(Cl)cc2)cc1Br` [IX-50], the pest or weed control at 500 ppm fell in the range of 80 to 89% in series [1], 90 to 100% in series [3], 90 to 100% in series [4] and 90 to 100% in series [5]. The chromatographic logP in series [2] was determined as 2.82.

Turning to `N#Cc1cncn1CC(=O)c1ccc(Oc2ccc(I)cc2)cc1F` [IX-63], the pest or weed control at 500 ppm in series [1], in series [3], in series [4] and in series [5] was 90 to 100% each time. Further, the chromatographic logP in series [2] came to 3.48.

As to `O=C(Cn1cncc1Cl)c1ccc(Oc2ccc(Cl)cc2)cc1Cl` [IX-04], the pest or weed control at 500 ppm in series [1], in series [3], in series [4] and in series [5] was 90 to 100% in each case. Further, the chromatographic logP in series [2] was 3.17.

As to `O=C(Cn1cncc1Br)c1ccc(Oc2ccc(Cl)cc2)cc1Cl` [IX-18], the pest or weed control at 500 ppm in series [1], in series [3], in series [4] and in series [5] was 90 to 100% each time. The compound further came in with a chromatographic logP in series [2] of 3.07.

For the compound `O=C(Cn1cncc1Br)c1ccc(Oc2ccc(Br)cc2)cc1Cl` [IX-39, 1-[4-(4-bromophenoxy)-2-chloro-phenyl]-2-(5-bromoimidazol-1-yl)ethanone], the pest or weed control at 500 ppm in series [1], in series [3], in series [4] and in series [5] was 90 to 100% in each case. For the same compound, the chromatographic logP in series [2] amounted to 3.1.

For the compound `O=C(Cn1cncc1F)c1cnc(Oc2ccc(C(F)(F)F)cc2)cc1Br` [IX-111], the pest or weed control at 500 ppm in series [1] lay within 80 to 89%; in series [3] it was 90 to 100%; in series [4] it was 90 to 100%; in series [5], 90 to 100%. Moreover, in series [2], the chromatographic logP was 2.64.

`N#Cc1cncn1CC(=O)c1ccc(Oc2ccc(Br)cc2)cc1C(F)(F)F` [IX-59]: the pest or weed control at 500 ppm in series [1], in series [3], in series [4] and in series [5] was 90 to 100% each time. In series [2], this compound had a chromatographic logP of 3.65.
